Here are results for 42 molecules from patent EP1200395B1, “UREA DERIVATIVES AS INHIBITORS OF CCR-3 RECEPTOR” (KIRIN BEER KABUSHIKI KAISHA, priority 1999, dated 2001).

In the assay the target is T1, CCR-3 (Homo sapiens, UniProt P51677).
T1 sequence (P51677 1-355): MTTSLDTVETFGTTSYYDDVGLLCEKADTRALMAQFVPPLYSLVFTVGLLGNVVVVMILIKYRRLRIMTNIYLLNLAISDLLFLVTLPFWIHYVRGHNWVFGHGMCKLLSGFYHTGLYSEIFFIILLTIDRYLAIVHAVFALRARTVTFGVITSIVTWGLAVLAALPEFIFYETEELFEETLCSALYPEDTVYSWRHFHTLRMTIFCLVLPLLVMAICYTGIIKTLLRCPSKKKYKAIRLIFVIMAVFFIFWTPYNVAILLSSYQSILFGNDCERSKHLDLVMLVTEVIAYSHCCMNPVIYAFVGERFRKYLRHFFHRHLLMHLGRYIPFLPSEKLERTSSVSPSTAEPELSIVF
The assay can be described thus: Eotaxin-induced chemotaxis of CCR-3 transfectant cells (CCR3/U937). The class given is cell-based. The arrangement: expressed in transfected cells; host or cells: U937. The conditions noted are these: eotaxin 1 x 10^-9 M; for Chemotaxis Assay 10 µM (inhibition %) / inhibition at 10 µM: 10 µM test compound; for inhibition at 10 µM: U-937; for Chemotaxis Assay 0.1 µg/ml (inhibition %): test compound 0.1 µg/ml, CCR3/U937 transfectants, 37 °C, 1 hour. How it is done: The inhibitory activity of the compounds against eotaxin-induced chemotaxis was determined by measuring the inhibition of migration of CCR-3 transfectant cells (CCR3/U937), using a minor modification of the method described by Ohashi, H. et al., Int Arch Allergy Immunol. […] The chemotaxis assay was performed in a 24-well culture plate. Human eotaxin suspended in assay medium was added to the wells at 1 x 10^-9 M along with test compounds at various concentrations. For a positive control, eotaxin was added to the wells without a test compound, and for a negative control, neither eotaxin nor a test compound was added to the wells. Chemotaxicell (Kurabo Co., Ltd.) having 5 micrometers pore size were inserted into each well and 100 micro liters of CCR-3 transfectant cells suspension were added to the top chamber. The plates were incubated at 37 °C for 1 hour. After incubation, migrated cells in lower wells were diluted and counted by particle size distribution analyzer (CDP-500, Sysmex Co., Ltd.).

The structures appear in SMILES notation.

In the case of `O=C(O)CCCN(CCCNC(=O)Nc1cccc(Cl)c1)C1CCCc2ccccc21` (stereo not drawn) [Compound 82], the “Chemotaxis Assay 10 µM (inhibition %)” value (CCR3/U937 cells (Table 3a)) is 100%.

On to `COC(=O)CCCN(CCCCNC(=O)Nc1ccc(Br)cc1)C1CCCc2ccccc21` (stereo not drawn) [Compound 32, Methyl 4-[[4-(4-bromophenylureido)butyl](1,2,3,4-tetrahydro-1-naphthyl)amino]butylate], for which, for the setting “CCR3/U937 cells (Table 3a)”, the “Chemotaxis Assay 10 µM (inhibition %)” value came to 99%.

In the case of `CCOC(=O)CCCCCN(CCCNC(=O)Nc1ccccc1)CCc1ccc(Cl)cc1` [Compound 242], the “Chemotaxis Assay 10 µM (inhibition %)” value (CCR3/U937 cells (Table 3a)) was determined as 73%.

In the case of `N#Cc1ccc(CN(CCCNC(=O)Nc2ccccc2)CCc2ccc(Cl)cc2)cc1` [Compound 16], the “Chemotaxis Assay 10 µM (inhibition %)” value (CCR3/U937 cells (Table 3a)) stood at 63%.

For the molecule `COC(=O)CCCN(CCCNC(=O)Nc1ccc(Br)cc1)C1Cc2ccccc2C1` [Compound 174], the “Chemotaxis Assay 10 µM (inhibition %)” value (CCR3/U937 cells (Table 3a)) is given as 100%.

For the molecule `COC(=O)CCCN(CCCNC(=O)Nc1ccc(Br)cc1)Cc1cccs1` [Compound 39], for the setting “CCR3/U937 cells (Table 3a)”, the inhibition (commonly the drop in the measured response relative to a control, in per cent) at 10 µM came to 78%.

In turn, `O=C(O)CCCN(CCCNC(=O)Nc1ccc(Cl)cc1)C1CCCc2ccccc21` (stereo not drawn) [Compound 171, 4-[[3-(4-Chlorophenylureido)propyl](1,2,3,4-tetrahydro-1-naphthyl)amino]butanoic acid] showed an inhibition at 10 µM (CCR3/U937 cells (Table 3a)) of 100%.

`COC(=O)CCCN(CCCNC(=O)Nc1ccc(Br)cc1)CCc1ccc(OC)c(OC)c1` [Compound 43] registered an inhibition at 10 µM (CCR3/U937 cells (Table 3a)) of 50%.

Take `O=C(O)CCCN(CCCNC(=O)Nc1ccc(Br)cc1)Cc1ccc(C(F)(F)F)cc1` [Compound 71]: where the note is “CCR3/U937 cells (Table 3a)”, the “Chemotaxis Assay 10 µM (inhibition %)” value is recorded as 64%.

Turning to `CCC(CC)C[N+](CC)(CCCNC(=O)Nc1ccccc1)CCc1cccc(F)c1.[I-]` (stereo not drawn) [compound 431], the “Chemotaxis Assay 0.1 µg/ml (inhibition %)” value is on record as 96%.

Regarding `CC[N+](CC#N)(CCCNC(=O)Nc1ccccc1)CCc1cccc(Cl)c1.[I-]` (stereo not drawn) [compound 411], the “Chemotaxis Assay 0.1 µg/ml (inhibition %)” value amounted to 42%.

On to `COc1cc(CN(CCCNC(=O)Nc2ccccc2)CCc2ccc(Cl)cc2)cc(OC)c1` [Compound 292], for which, for the setting “CCR3/U937 cells (Table 3a)”, the “Chemotaxis Assay 10 µM (inhibition %)” value was 56%.

Turning to `CC[N+](CC)(CCCNC(=O)Nc1ccccc1)CCc1ccc(OC)cc1.[I-]` [Compound 304], the “Chemotaxis Assay 10 µM (inhibition %)” value (CCR3/U937 cells (Table 3c)) stood at 66%.

For `CC[N+](CC)(CCCCCNC(=O)Nc1ccccc1)CCc1ccc(Cl)cc1.[I-]` [Compound 323, [5-(Phenylureido)pentyl][2-(4-chlorophenyl)ethyl]diethylammanium iodide], the “Chemotaxis Assay 10 µM (inhibition %)” value (CCR3/U937 cells (Table 3c)) was found to be 100%.

Take `CCN(CCCCNC(=O)Nc1ccccc1)CCc1ccc(Cl)cc1` [Compound 7]: the “Chemotaxis Assay 10 µM (inhibition %)” value (CCR3/U937 cells (Table 3a)) was determined as 99%.

`CC[N+](CCCNC(=O)Nc1ccc(OC)cc1)(CCOCCOC)CCc1cccc(F)c1.[I-]` (stereo not drawn) [compound 439]: the “Chemotaxis Assay 0.1 µg/ml (inhibition %)” value was 51%.

Regarding `CC[N+](CCCNC(=O)Nc1ccc(C#N)cc1)(CCOCCOC)CCc1cccc(OC)c1.[I-]` (stereo not drawn) [compound 392], the “Chemotaxis Assay 0.1 µg/ml (inhibition %)” value was 45%.

For `CC[N+](CCCNC(=O)Nc1ccccc1)(CCc1ccc(Cl)cc1)Cc1ccccc1Cl` (stereo not drawn) [Compound 343, [3-(Phenylureido)propyl][2-(4-chlorophenyl)ethyl](2-chlorobenzyl)ethylammonium iodide], where the note is “CCR3/U937 cells (Table 3c)”, the inhibition at 10 µM was 100%.

On to `O=C(O)CCCN(CCCNC(=O)Nc1ccc(-c2ccccc2)cc1)C1CCCc2ccccc21` (stereo not drawn) [Compound 277], for which the “Chemotaxis Assay 10 µM (inhibition %)” value (CCR3/U937 cells (Table 3a)) amounted to 76%.

For the molecule `O=C(O)CCCCN(CCCNC(=O)Nc1ccc(Br)cc1)C1CCCc2ccccc21` (stereo not drawn) [Compound 214], the “Chemotaxis Assay 10 µM (inhibition %)” value (CCR3/U937 cells (Table 3a)) is reported as 99%.

For the molecule `CC(C)(Cc1ccccc1)N(CCCNC(=O)Nc1ccc(Br)cc1)CCCC(=O)O` [Compound 207], the “Chemotaxis Assay 10 µM (inhibition %)” value (CCR3/U937 cells (Table 3a)) is on record as 50%.

In turn, `O=C(O)CCCN(CCCNC(=O)Nc1ccc(Br)cc1)[C@@H]1CCCc2ccccc21` [Compound 181, 4-[[3-(4-Bromophenylureido)propyl][(1R)-1,2,3,4-tetrahydro-1-naphthyl]amino]butanoic acid] yielded an inhibition at 10 µM (CCR3/U937 cells (Table 3a)) of 100%.

In the case of `CC[N+](CCF)(CCCNC(=O)Nc1ccc(Cl)c(Cl)c1)CCc1cccc(Cl)c1.[I-]` (stereo not drawn) [compound 369], the “Chemotaxis Assay 0.1 µg/ml (inhibition %)” value amounted to 82%.

For `CC[N+](CCCNC(=O)Nc1ccc(Cl)c(Cl)c1)(CCOCCOC)CCc1ccccc1.[I-]` (stereo not drawn) [compound 359], the “Chemotaxis Assay 0.1 µg/ml (inhibition %)” value came to 49%.

For `CC[N+](CCF)(CCCNC(=O)Nc1ccc(C#N)cc1)CCc1c(Cl)cccc1Cl.[I-]` (stereo not drawn) [compound 405], the “Chemotaxis Assay 0.1 µg/ml (inhibition %)” value was determined as 57%.

With `COC(=O)CCCN(CCCNC(=O)Nc1ccc(Cl)cc1)C1CCCc2ccccc21` (stereo not drawn) [Compound 185], the “Chemotaxis Assay 10 µM (inhibition %)” value (CCR3/U937 cells (Table 3a)) is on record as 100%.

For `Cc1cc(Br)ccc1NC(=O)NCCCN(CCCC(=O)O)C1CCCc2ccccc21` (stereo not drawn) [Compound 201], the “Chemotaxis Assay 10 µM (inhibition %)” value (CCR3/U937 cells (Table 3a)) was 100%.

For `O=C(NCCCN(CCCc1nnnn1C(c1ccccc1)(c1ccccc1)c1ccccc1)C1CCCc2ccccc21)Nc1ccc(Br)cc1` (stereo not drawn) [Compound 217, 3-[[3-(4-bromophenylureido)propyl](1,2,3,4-tetrahydro-1-naphthyl)amino]-1-[1-(triphenylmethyl)tetrazol-5-yl]propane], the inhibition at 10 µM (CCR3/U937 cells (Table 3a)) stood at 87%.

`CC[N+](CCCNC(=O)Nc1ccccc1)(CCOCCOC)CCc1cccc(Cl)c1.[I-]` (stereo not drawn) [compound 413]: the “Chemotaxis Assay 0.1 µg/ml (inhibition %)” value was 95%.

With `NC(=O)CN(CCCNC(=O)Nc1ccccc1)CCc1ccc(Cl)cc1` [Compound 220], the “Chemotaxis Assay 10 µM (inhibition %)” value (CCR3/U937 cells (Table 3a)) is given as 77%.

On to `O=C(NCCCN(CCc1ccc(Cl)cc1)CC1CCCCC1)Nc1ccccc1` [Compound 240], for which the “Chemotaxis Assay 10 µM (inhibition %)” value (CCR3/U937 cells (Table 3a)) came to 86%.

In the case of `O=C(O)CCCN(CCCNC(=O)Nc1ccc(F)cc1)C1CCCc2ccccc21` (stereo not drawn) [Compound 188], the “Chemotaxis Assay 10 µM (inhibition %)” value (CCR3/U937 cells (Table 3a)) is on record as 100%.

Take `C=C(C)C[N+](CC)(CCCNC(=O)Nc1ccc(Br)cc1)CCc1cccc(Cl)c1.[I-]` (stereo not drawn) [compound 378]: the “Chemotaxis Assay 0.1 µg/ml (inhibition %)” value was 81%.

In the case of `CC[N+](CCCNC(=O)Nc1ccc(C(F)(F)F)cc1)(CCOCCOC)CCc1cccc(Cl)c1.[I-]` (stereo not drawn) [compound 387], the “Chemotaxis Assay 0.1 µg/ml (inhibition %)” value came to 94%.

In the case of `CC[N+](CCCNC(=O)Nc1ccccc1)(CCc1cccc(Cl)c1)CCC(C)C.[I-]` (stereo not drawn) [compound 407], the “Chemotaxis Assay 0.1 µg/ml (inhibition %)” value is 52%.

For `CC[N+](CCCNC(=O)Nc1ccccc1)(CCOCCOC)CCc1ccc(Cl)cc1.[I-]` (stereo not drawn) [compound 412], the “Chemotaxis Assay 0.1 µg/ml (inhibition %)” value stood at 84%.

For the molecule `CC[N+](CCCNC(=O)Nc1ccccc1)(CCOCCOC)CCc1ccc(Cl)cc1Cl.[I-]` (stereo not drawn) [compound 414], the “Chemotaxis Assay 0.1 µg/ml (inhibition %)” value is on record as 98%.

Turning to `Cc1ccc(C(C)N(CCCNC(=O)Nc2ccc(Br)cc2)CCCC(=O)O)cc1` (stereo not drawn) [Compound 226], the “Chemotaxis Assay 10 µM (inhibition %)” value (CCR3/U937 cells (Table 3a)) is listed as 100%.

Consider `CC[N+](CCCNC(=O)Nc1ccc(Br)cc1)(CCc1cccc(Cl)c1)CC1CCC1.[I-]` (stereo not drawn) [compound 376], for which the “Chemotaxis Assay 0.1 µg/ml (inhibition %)” value is on record as 87%.

Take `CC[N+](CCCNC(=O)Nc1ccccc1)(CCc1ccc(Cl)cc1)Cc1cccc(F)c1` (stereo not drawn) [Compound 352, [3-(Phenylureido)propyl][2-(4-chlorophenyl)ethyl](3-fluorobenzyl)ethylammonium iodide]: for the setting “CCR3/U937 cells (Table 3c)”, testing at 10 µM gave an inhibition of 100%.

As to `CC[N+](CC)(CCCNC(=O)Nc1ccccc1)CCc1ccccc1Cl.[I-]` [Compound 308], the “Chemotaxis Assay 10 µM (inhibition %)” value (CCR3/U937 cells (Table 3c)) worked out at 100%.

For the molecule `O=C(O)CCCN(CCCNC(=O)Nc1ccc(Br)cc1)C1CCc2ccccc21` (stereo not drawn) [Compound 177], for the setting “CCR3/U937 cells (Table 3a)”, the “Chemotaxis Assay 10 µM (inhibition %)” value is 89%.
